Source: ChEMBL document CHEMBL1201862, “PubChem BioAssay data set” (2004)
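All cell lines were grown in 96-well plates and treated with compound for 48 hours. GI50 marks 50% less growth.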 Activity calls are given as the source filed them. No stated cut-off is given here; in the data, active = GI50 up to about 1.1 µM and inactive = higher.

Tests used:
Test in all cases: NCI-60 cell line screen, 48 h
[1] = system: M14
[2] = system: SK-MEL-2
[3] = system: NCI-H23
[4] = system: PC-3
[5] = system: UACC-257
[6] = system: TK-10
[7] = system: KM12
[8] = system: IGROV-1
[9] = system: CCRF-CEM
[10] = system: BT-549
[11] = system: CAKI-1
[12] = system: OVCAR-8
[13] = system: EKVX
[14] = system: 786-0
[15] = system: MCF7
[16] = system: HT-29
[17] = system: UACC-62
[18] = system: SNB-75

Measured: GI50

CCOC(=O)c1cc(C)n(CN(CCO)Cn2nc(C(=O)OCC)cc2C)n1
inactive: [1] 18.5 µM | [2] 19.9 µM | [3] 21.1 µM | [4] 28.4 µM | [5] 29.2 µM | [6] 80.2 µM | [7] 31.6 µM | [8] 29.4 µM | [9] 18.8 µM | [10] 27.5 µM | [11] 36.2 µM | [12] 22.7 µM | [13] 34.2 µM | [14] 22 µM | [15] 28.2 µM | [16] 23.6 µM | [17] 17.8 µM

CC(C)(O)C1CC[C@]2(C)[C@H]3CC[C@@H]4[C@@]5(C)CCCC(C)(C)[C@@H]5CC[C@@]4(C)[C@]3(C)CC[C@@H]12 (some centres not stated)
inactive: [1] > 100 µM | [2] > 100 µM | [3] > 100 µM | [4] > 100 µM | [5] > 100 µM | [6] > 100 µM | [7] > 100 µM | [8] > 100 µM | [9] > 100 µM | [10] > 100 µM | [11] > 100 µM | [12] > 100 µM | [13] > 100 µM | [14] > 100 µM | [15] > 100 µM | [16] > 100 µM | [17] > 100 µM

Cc1ccc(C2SCC(=O)N2c2ccc(-c3ccc(-n4c(-c5ccccc5)nc5ccccc5c4=O)cc3)cc2)cc1 (configuration not stated)
inactive: [1] 85.7 µM | [2] > 100 µM | [3] > 100 µM | [4] 42.4 µM | [5] > 100 µM | [6] > 100 µM | [7] 55.8 µM | [8] 25.3 µM | [9] 34.9 µM | [10] 60.7 µM | [11] > 100 µM | [12] > 100 µM | [13] 53.3 µM | [14] 45.7 µM | [15] > 100 µM | [16] 38.9 µM | [17] > 100 µM

COc1ccc(-c2nc3ncccn3c2-c2ccc(S(C)(=O)=O)cc2)cc1
inactive: [1] > 100 µM | [2] > 100 µM | [3] > 100 µM | [4] > 100 µM | [5] > 100 µM | [7] > 100 µM | [8] 53.8 µM | [9] > 100 µM | [10] > 100 µM | [11] 24.9 µM | [12] > 100 µM | [14] > 100 µM | [15] 22.3 µM | [16] > 100 µM | [18] > 100 µM | [17] 53.6 µM
